# Test results reported in article PMC10065799, “High-throughput profiling of sequence recognition by tyrosine kinases and SH2 domains using bacterial peptide display” (eLife, 2023).
# Target: T1, c-Src kinase domain (Homo sapiens, UniProt P12931)
# Experiment: ADP-Quest continuous fluorimetric kinase assay (Michaelis-Menten parameters and initial rates)
# Format: biochemical
# Details: c-Src kinase domain 10 nM, 100 μM ATP, 37 °C, three to five replicates, error = standard error of global Michaelis-Menten fit
# Source text: A fluorescence-based assay from Eurofins (ADP Quest) was used to measure the Michaelis-Menten kinetic parameters for phosphorylation of the consensus peptides by purified tyrosine kinase domains. In this assay, ADP production as a result of kinase activity is coupled to the production of resorufin, a fluorophore that emits signal at 590 nm. For all experiments, the assay reactions were set up as described in the provided assay kit protocol, in a 384 well plate format. The peptide solutions were serially diluted in 100 mM Tris, pH 8.0, and the kinases were diluted to 50 nM in buffer (10 mM HEPES, 100 mM NaCl, 1 mM TCEP, 5 mM MgCl2, 10% (v/v) glycerol). The final reaction mixtures contained 10 nM of kinase with 100 μM of ATP. […] Phosphorylation reaction progress was monitored by measuring fluorescence at excitation 530 nm and emission 590 nm every 2 min at 37 °C on a plate reader (BioTek Synergy Neo 2). The fluorescence units (RFU) were converted to μM ADP by comparison to a standard curve, and the initial rates were extracted from the linear regime of the reaction progress curves. Initial rates were also measured for samples containing each kinase but lacking a peptide substrate, to account for background ATP hydrolysis. This background rate was subtracted from the rates measured in the presence of peptide. […]
Km [µM],kcat [s^–1],Substance
64 ± 10,3.1±0.2,"Ac-GAEEEIYGEFEAKKKG-NH2 [SrcTide (1995), previously reported c-Src consensus substrate (Songyang et al., 1995)]"

# Target: T1, c-Src kinase domain
# Experiment: pTyr-Var library bacterial peptide display kinase screen (enrichment scores)
# Format: biochemical
# Details: sheet "Src"; effect of the variant peptide relative to its reference peptide in the pTyr-Var library screen
row,Substance,Screen
1,VDGSVYELHPS [GCK_Y413_K414E],1.442
2,SRDPFYEMLTA [CYTH1_Y382_A386T],0.1014
3,ITNVLYHVVGW [GBA_Y412_L410V],-0.5492
4,RTVPLYESLRK [DDB1_Y718_P721L],1.169
5,VKANTYENFWP [GATM_Y100_K102N_YF],0.5982
6,KSRQIYDAFIM [GRK3_Y109_R104K_YF],0.6859
7,MENFIYESMQF [CYP19A1_Y361_R365Q_YF],0.1198
8,FSMGCYEFSLG [HMGCL_Y198_I200F_YF],-0.3724
9,FAELVYTSFWH [ASS1_Y322_G324S],-0.03781
10,HNLDFYKETTN [FGFR3_Y648_K650E_YF],-1.013
11,NVKGIYAVADV [GSR_Y371_G374A],-0.2612
12,SSSAIYDNPDL [DCP1B_Y191_N195D],-1.087
13,QMVGMYASFFM [AVPR2_Y124_S127F_YF],2.334
14,KAWGIYDCQQP [CYP3A7_Y75_V71A],0.09779
15,GTSLIYWILFT [G6PC3_Y214_T216I],-1.381
16,FSMGCYEIFLG [HMGCL_Y198_S201Y_YF],1.946
17,TLSGTYQFIIA [FOXL2_Y81_I80T_YF],-2.746
18,RIGRKYKRVRF [F8_Y442_K444R],3.277
19,FKEDPYLVVNP [MCM6_Y810_E806K_YF],-0.4166
20,ASTHIYQIMNH [ITK_Y588_V587I],0.7541

# Same assay, conditions: sheet "Src"; variant peptide versus its reference peptide in the pTyr-Var library screen
row,Substance,Screen
1,MSRFIYSTDFF [NTRK1_Y676_D674Y_YF],-0.3372
2,VFLGAYDHFLP [SLC22A5_Y486_R488H_YF],-0.3296
3,NREGVYTVSAP [TGFBI_Y537_F540S],-0.08291

# Target: T2, c-Abl kinase domain (Mus musculus, UniProt P00520)
# T2 sequence (P00520 242-493 limits assumed): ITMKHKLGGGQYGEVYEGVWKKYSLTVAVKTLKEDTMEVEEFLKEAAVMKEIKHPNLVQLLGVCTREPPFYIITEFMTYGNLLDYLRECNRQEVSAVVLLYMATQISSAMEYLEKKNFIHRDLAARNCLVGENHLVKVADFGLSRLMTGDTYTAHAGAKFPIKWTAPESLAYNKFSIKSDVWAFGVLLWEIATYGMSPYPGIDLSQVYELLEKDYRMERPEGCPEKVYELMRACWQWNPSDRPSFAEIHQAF
# Experiment: as above
# Format: biochemical
# Details: fig5-data2, sheet "Abl"; Screen for the variant/reference peptide pair, pTyr-Var library
row,Substance,Screen
1,FSMGCYEFSLG [HMGCL_Y198_I200F_YF],1.5
2,SSSAIYDNPDL [DCP1B_Y191_N195D],1.925
3,FSMGCYEIFLG [HMGCL_Y198_S201Y_YF],0.9187
4,FKEDPYLVVNP [MCM6_Y810_E806K_YF],-1.709

# Tested on: Fer kinase domain
# Experiment: as above
# Format: biochemical, mouse
# Details: sheet "Fer"; value of the variant peptide against its reference peptide in the pTyr-Var library screen with Fer
row,Substance,Screen
1,VDGSVYELHPS [GCK_Y413_K414E],4.734
2,SRDPFYEMLTA [CYTH1_Y382_A386T],-0.1692
3,ITNVLYHVVGW [GBA_Y412_L410V],-0.5496
4,RTVPLYESLRK [DDB1_Y718_P721L],-0.4469
5,VKANTYENFWP [GATM_Y100_K102N_YF],1.784
6,MSRFIYSTDFF [NTRK1_Y676_D674Y_YF],-0.8782
7,KSRQIYDAFIM [GRK3_Y109_R104K_YF],0.5964
8,MENFIYESMQF [CYP19A1_Y361_R365Q_YF],0.2137
9,FSMGCYEFSLG [HMGCL_Y198_I200F_YF],0.8119
10,FAELVYTSFWH [ASS1_Y322_G324S],0.3535
11,HNLDFYKETTN [FGFR3_Y648_K650E_YF],-1.533
12,NVKGIYAVADV [GSR_Y371_G374A],1.853
13,SSSAIYDNPDL [DCP1B_Y191_N195D],-0.4908
14,QMVGMYASFFM [AVPR2_Y124_S127F_YF],2.583
15,KAWGIYDCQQP [CYP3A7_Y75_V71A],0.5201
16,GTSLIYWILFT [G6PC3_Y214_T216I],-1.528
17,FSMGCYEIFLG [HMGCL_Y198_S201Y_YF],1.084
18,TLSGTYQFIIA [FOXL2_Y81_I80T_YF],-3.428
19,ASTHIYQIMNH [ITK_Y588_V587I],2.332

# Same assay, conditions: sheet "Fer"; variant peptide relative to its reference peptide, pTyr-Var library screen enrichment
row,Substance,Screen
1,VFLGAYDHFLP [SLC22A5_Y486_R488H_YF],2.03
2,NREGVYTVSAP [TGFBI_Y537_F540S],-3.034

# Tested on: EPHB1 kinase domain
# Experiment: as above
# Format: biochemical, human
# Details: sheet "EPHB1"; variant seq vs reference seq; bacterial peptide display enrichment
row,Substance,"Screen (variant relative to reference peptide, measured in the pTyr-Var library screen)"
1,VFLGAYDHFLP [SLC22A5_Y486_R488H_YF],0.9383
2,NREGVYTVSAP [TGFBI_Y537_F540S],-2.126

# Same assay, conditions: sheet EPHB1; effect of the variant peptide relative to its reference peptide in the pTyr-Var library screen (enrichment scores)
row,Substance,Screen
1,VDGSVYELHPS [GCK_Y413_K414E],2.239
2,SRDPFYEMLTA [CYTH1_Y382_A386T],0.4954
3,ITNVLYHVVGW [GBA_Y412_L410V],-1.243
4,RTVPLYESLRK [DDB1_Y718_P721L],0.1495
5,VKANTYENFWP [GATM_Y100_K102N_YF],2.281
6,MSRFIYSTDFF [NTRK1_Y676_D674Y_YF],-1.34
7,KSRQIYDAFIM [GRK3_Y109_R104K_YF],0.9818
8,MENFIYESMQF [CYP19A1_Y361_R365Q_YF],0.9498
9,FAELVYTSFWH [ASS1_Y322_G324S],0.4613
10,HNLDFYKETTN [FGFR3_Y648_K650E_YF],-0.9671
11,NVKGIYAVADV [GSR_Y371_G374A],1.714
12,SSSAIYDNPDL [DCP1B_Y191_N195D],-0.6114
13,QMVGMYASFFM [AVPR2_Y124_S127F_YF],1.725
14,KAWGIYDCQQP [CYP3A7_Y75_V71A],0.3477
15,GTSLIYWILFT [G6PC3_Y214_T216I],-1.942
16,FSMGCYEIFLG [HMGCL_Y198_S201Y_YF],0.9243
17,TLSGTYQFIIA [FOXL2_Y81_I80T_YF],-3.534
18,ASTHIYQIMNH [ITK_Y588_V587I],3.124

# Tested on: EPHB2 kinase domain
# Experiment: as above
# Format: biochemical, human
# Details: sheet EPHB2; effect of variant peptide relative to its reference peptide in the pTyr-Var library screen (enrichment scores)
row,Substance,Screen
1,VDGSVYELHPS [GCK_Y413_K414E],2.546
2,SRDPFYEMLTA [CYTH1_Y382_A386T],0.7334
3,ITNVLYHVVGW [GBA_Y412_L410V],-1.361
4,RTVPLYESLRK [DDB1_Y718_P721L],-0.0735
5,VKANTYENFWP [GATM_Y100_K102N_YF],2.516
6,MSRFIYSTDFF [NTRK1_Y676_D674Y_YF],-1.706
7,KSRQIYDAFIM [GRK3_Y109_R104K_YF],1.299
8,MENFIYESMQF [CYP19A1_Y361_R365Q_YF],1.167
9,VFLGAYDHFLP [SLC22A5_Y486_R488H_YF],1.125
10,NREGVYTVSAP [TGFBI_Y537_F540S],-1.97
11,FAELVYTSFWH [ASS1_Y322_G324S],0.4289
12,HNLDFYKETTN [FGFR3_Y648_K650E_YF],-1.243
13,NVKGIYAVADV [GSR_Y371_G374A],2.725
14,SSSAIYDNPDL [DCP1B_Y191_N195D],-0.486
15,QMVGMYASFFM [AVPR2_Y124_S127F_YF],1.338
16,KAWGIYDCQQP [CYP3A7_Y75_V71A],0.8548
17,GTSLIYWILFT [G6PC3_Y214_T216I],-1.51
18,FSMGCYEIFLG [HMGCL_Y198_S201Y_YF],0.8942
19,TLSGTYQFIIA [FOXL2_Y81_I80T_YF],-3.51
20,RIGRKYKRVRF [F8_Y442_K444R],1.084
21,ASTHIYQIMNH [ITK_Y588_V587I],2.415
